Results taken from publication PMC7215935, “GM1 Oligosaccharide Crosses the Human Blood–Brain Barrier In Vitro by a Paracellular Route” (International Journal of Molecular Sciences, 2020).

Test: Inverse transport (basolateral to apical, B → A) across hBLECs and efflux ratio
Assay type: in vitro ADME, human
Details: human, pH 7.4; 50 μM in basolateral compartment, 60 min (Figure 7)
Method: For the inverse transport study (related to basolateral → apical flux, B → A), 1.5 mL of 1 × 10^6 dpm of tritiated [^3H]OligoGM1 plus 50 μM OligoGM1 in RH buffer were added to an empty well of a 12-well plate (Figure S3c). Every 20 min up to 60 min, the hBLEC filter filled with 0.5 mL RH buffer was removed and replaced with a new filter with fresh RH buffer.
The apparent permeability, efflux ratio, and endothelial permeability were calculated to estimate the absorption processes of drugs, to predict implication of active transport in the process of drugs absorption, and to more accurately appreciate the transport of a drug across an endothelial barrier, respectively. Detailed information on the equations used to calculate the permeability parameters are reported in the Supplementary Information. […]
where (∆Q/∆t) (μmol/sec) is the rate of permeation (quantity per second) of a molecule across the cell layer, C0 (μmol/cm3) is the donor compartment concentration at time zero and S (cm2) is the area of […]
In the transwell insert system there are two compartments and, analyzing the absorption of a substance, the apparent permeability index can be obtained for the apical to basolateral transport, Papp A → B, and for the inverse, basolateral to apical transport Papp B → A.
To define Papp (1), the Fick's law could be used, which describes the transport of substances through a semipermeable membrane. Given that the initial concentration of the solute in the donor compartment is much higher than the one in the receiver compartment (equal to 0 at t0), and assuming that the solute equally partitions in the two compartments, for small variation of C0, it is possible to integrate and simplify the Fick’s equation to obtain as follows: […]
where ∆Q/∆t corresponds to the amount of solute that crosses the membrane over time, D is the diffusion coefficient of the substance in water, S is the membrane surface, h its thickness and C0 is the concentration of the solute which approximates the initial concentration C0.
The equation (2) can be rewritten as: […]

CC(=O)NC1C(O)CC(OC2C(O)C(OC3C(CO)OC(O)C(O)C3O)OC(CO)C2OC2OC(CO)C(O)C(OC3OC(CO)C(O)C(O)C3O)C2NC(C)=O)(C(=O)O)OC1C(O)C(O)CO (stereo not drawn) [OligoGM1, β-Gal-(1-3)-β-GalNAc-(1-4)-[α-Neu5Ac-(2-3)]-β-Gal-(1-4)-β-Glc]
Papp B→A at 60 min, 50 μM: 8.7 ± 1.4 ×10⁻⁶ cm/s
